Laboratory results from patent US20240130988A1, “Use of stilbene compounds in the preparation of anti-tumor drugs” (Guangzhou AnHao Pharmaceutical Technology CO., LTD., priority 2022, published 2024).
Marks after values point to notes of the source that are not given here.

Key:
[1] = test system: human liver cancer QGY7703; test: Human liver cancer QGY7703 transplanted tumor in nude mice; format: in vivo, BALB/C nude mice; design: key to RTV (d 18): RTV = Vt/Vo, tumor volume relative to volume at grouping (d1); settings: QGY7703, 100 mg/kg iv × 14
Protocol: A human liver cancer QGY7703 model transplanted into nude mice was used in the experiment to investigate the anti-tumor effect of test compounds. The mice were intravenously injected at a dosage of 100 mg/kg for 14 days, and the tumor inhibition rate against human liver cancer QGY7703 was measured.
(§1) Preparation: The compound was prepared as the injection at the desired concentration with sterile normal saline, prior to administration.
Animal strain: BALB/C nude mice (SPF grade), weight: 19-21 g, gender: male. Number of animals in each treatment group: 8; number of animals in the control group: >12.
(§2) The tumor blocks of human liver cancer QGY7703 with good growth were cut into uniform small pieces of 3 mm under sterile conditions, and then subcutaneously inoculated into the right armpit of each mouse with a cannula. These mice were divided into 9 groups, 8 mice for each treatment group, while more than 12 mice were included in the control group.
(§3) 14 days after inoculation, the average volume of the tumor block was about 100 mm^3. The animals were regrouped based on the size of the tumor, and the animals with tumors that were too large and too small were sifted out. For each group, the average volume of tumors was basically the same, and then the mice were initially treated with test compounds. The mice in the treatment groups were intravenously injected once a day for 14 days, at a dosage of 0.1 mL/20 g body weight; the mice in the control group were given the same volume of sterile normal saline. From the 14th day of inoculation, the long diameter a (mm) of the tumor, together with the perpendicular short diameter b (mm), was measured using a digital electronic caliper, twice a week. The calculation formula of tumor volume is: TV=ab^2/2, and the formula for calculating the relative tumor volume is RTV=Vt/Vo, wherein Vo denotes the tumor volume measured when the mice were divided into groups (i.e. d1), and Vt is the tumor volume from each measurement.
(§4) The result determination is based on the following formula: […]

[2] = test system: LLC (mouse lung cancer cells); test: Enrichment of CD8+ cytotoxic T lymphocytes in tumor tissue, Lewis non-small cell lung cancer model of mice; format: in vivo; settings: 400 mg/kg ip once a day for 10 days, CD8+ immunohistochemistry
[3] = test system: LLC (mouse lung cancer cells); test: as above; format: in vivo; settings: 400 mg/kg ip once a day for 10 days, flow cytometry
Protocol: LLC (mouse lung cancer cells) were a mouse Lewis lung cancer cells.
The modeling method for LLC cell lung cancer in mice was as follows:
LLC cells were cultured in the general medium containing 10% fetal bovine serum and 100 μg/mL of double antibody (penicillin±streptomycin), and then cultivated in a 37° C., 5% CO2 cell incubator for routine incubation. LLC cells, that had grown to logarithmic phase, were digested with 0.25% trypsin (containing EDTA) to form a cell suspension, which was centrifuged at 1000 rpm/min for 3 min. The supernatant was discarded, and cell precipitates were collected, that were resuspended in culture medium without serum and double antibody. The cell suspension was further centrifuged to adjust the volume under the same conditions with the aid of cell counting, so as to prepare a cell suspension at a concentration of […] was injected into the right abdomen of each mouse, to complete the inoculation of tumor cells. The tumor was allowed to grew about 10 days, and the volume reached around 100 mm^3, before the mice were treated with test compounds.
Drug preparation: compounds 1-13 of the present invention were respective prepared into an injection with injection water.
Experimental methods: The model mice with LLC cell lung cancer were treated by intraperitoneal administration of 400 mg/kg injection containing the compound of the present invention. The model mice were divided into a negative control group (model mice only receiving equal volume of injection water by intraperitoneal administration) and treatment groups (model mice receiving the injection prepared with the compound of the present invention by intraperitoneal administration). The intraperitoneal injection regimen was carried out by injecting once a day at the pre-determined time. Before administration, the mice were weighed, and then treated with the injection at a dosage of 10 mL/kg, After successive administration for 10 days, that is, on the 10th day after receiving treatment, the mice were sacrificed, and the subcutaneous tumors were stripped to detect the ratio of cytotoxic T lymphocyte antigen CD8^+ in tumor tissues of the negative group and the treatment group by flow cytometry.
CD8^+ tumor-infiltrating lymphocytes in tumor tissues were detected by flow cytometry. The specific steps were as follows:
The mice were sacrificed, and then the abdominal epidermis of the mice was cut open using ophthalmic scissors, to fully expose the subcutaneous tumors. The subcutaneous tumor tissues on the right side of the mouse's abdomen were gradually peeled off with tweezers and ophthalmic scissors. After rinsing with PBS, the stripped tumor tissues were cut into about 1 mm using ophthalmic scissors, and then placed in 3 mL of PBS buffer containing 100 μg/mL of hyaluronidase. A centrifuge tube containing a dispersed liquid was placed in a water bath and kept at 37° C. for 20 min. A pipette was used to blow and shake the digestive tumor tissues every 5 minutes to fully digest. The dispersed liquid containing undigested tumor tissues was filtered through a 70 μm stainless steel cell screen, and the remaining undigested tumor tissues were ground using a push rod of 20 mL syringe on 70 μm cell screen and rinsed 5 times with 1 mL of PBS while grinding. The cell suspension passing the cell screen was transferred to a 15 mL centrifuge tube, and centrifuged at 4000 rpm for 3 min. Then, cell precipitates were collected, to which was added 2 mL of red cell lysis buffer, and rested for 10 min, followed by centrifuging at 4000 rpm for 3 min. After washing with PBS, the cells were resuspended by adding 2-3 mL of PBS.
An appropriate amount of cell suspension was used as the sample for flow cytometry, and after counting, the cell suspension was adjusted to have a concentration of 5×10^6/mL. 100 μL of cell suspension was added to a test tube with a pipettor. […]

[4] = test system: human renal cell carcinoma AGHN; test: Human renal cell carcinoma AGHN transplanted tumor in nude mice; format: in vivo, BALB/C nude mice; settings: 200 mg/kg ip × 14
Protocol: A human renal cell carcinoma AGHN model transplanted into nude mice was used in the experiment to investigate the anti-tumor effect of test compounds. […] AGHN was measured.
as §1
Animal strain: BALB/C, nude mice (SPF grade), weight: 19-21 g, gender: male. Number of animals in each treatment group: 8; number of animals in the control group: >12.
as §2, with “renal cell carcinoma AGHN” for “liver cancer QGY7703”, “The” for “These”, “>12” for “more than 12”
as §3, with “about 100 mm^3, The animals” for “about 100 mm^3. The animals”, “The mice were intraperitoneally” for “The mice in the treatment groups were intravenously”, “mice were intraperitoneally injected once” for “groups were intravenously injected once”, “dosage of 0.2 mL/20 g” for “dosage of 0.1 mL/20 g”, “tumor volume is: RTV=Vt/Vo, wherein” for “tumor volume is RTV=Vt/Vo, wherein”, “and Vt denotes the tumor” for “and Vt is the tumor”
as §4

[5] = test system: nonfusion human umbilical vein endothelial cells (HUVEC); test: TMT quantitative proteomics on nonfusion HUVEC; format: cell-based; settings: 10 μM; for Differentially expressed proteins: more than 1.5 times or less than 0.67 times vs control; for Down-regulation / Up-regulation: number of proteins
Protocol: Nonfusion human umbilical vein endothelial cells (HUVEC) were used to simulate new tumor blood vessels, while confluent HUVECs were used to simulate normal blood vessels, to construct experimental models. Two different HUVECs were treated with the compound at the same dosage of 10 μM, to simulate the fusion cell state, and proteome samples were prepared. After preparation of peptide segments, the segments were labelled with TMT, and a quantitative proteomics analysis was carried out. The efficiency of TMT labeling was higher than 99.4%, and a total of 28372 peptide segments from 4934 proteins were characterized using a strict 1% FDR limit. Among them, 4909 quantifiable proteins were identified, indicating reliable quality. The nonfusion treatment groups and the fusion treatment groups were compared with their respective control groups, and the control group was used as a reference, with a significant difference of more than 1.5 times or less than 0.67 times as the protein score standard.
The total cell proteins of the samples in nonfusion cell groups and fusion cell groups were extracted separately, and 2 μg of protein samples were subjected to quality analysis, The quantitative proteomics experiments were carried out, and the protein concentration assay was performed by quantitative grayscale measurement.
Data analysis: The human protein database (Scientific name: Homo sapiens, 9606) was downloaded from UniProt, MaxQuant (v 1.5.5.1) search engine was used to search for the database. A total of 4934 proteins (4909 quantitative proteins) and 28372 peptide segments were identified by TMT quantitative proteomics experiments, with a labeling efficiency of more than 99%, and the complete digestion occupied 86.3%.

[6] = test system: human ovarian cancer A2780; test: Human ovarian cancer A2780 transplanted tumor in nude mice; format: in vivo, BALB/C nude mice; settings: A2780, 200 mg/kg ip × 14
Protocol: A human ovarian cancer A2780 model transplanted into nude mice was used in the experiment to investigate the anti-tumor effect of test compounds.
as §1
Animal strain: BALB/C nude mice (SPF grade), weight: 19-21 g, gender: male.
Number of animals in each treatment group: 8; number of animals in the control group: >12.
as §2, with “ovarian” for “liver”, “A2780 growing well” for “QGY7703 with good growth”, “The” for “These”, “>12” for “more than 12”
as §3, with “mice” for “mice in the treatment groups”, “intraperitoneally” for “intravenously”, “0.2” for “0.1”
as §4

[7] = test system: human lung cancer A549; test: Human lung cancer A549 transplanted tumors in nude mice; format: in vivo, BALB/C nude mice; settings: A549, 400 mg/kg ig × 14
Protocol: In this experiment, a human lung cancer A549 model transplanted into nude mice was selected to study the anti-tumor effect of test compounds. The mice were treated at a dosage of 400 mg/kg by gavage for 14 days, and the tumor inhibition rate against human lung cancer A549 was measured.
Preparation: The compound was prepared as the solution at the desired concentration with distilled water, prior to administration.
Animal strain: BALB/C nude mice (SPF grade), weight: 19-21 g, gender: male. Number of animals in each treatment group: 8; Number of animals in the control group: >12.
Lung cancer A549 tumor blocks with good growth were chosen and cut into uniform small pieces of 3 mm under sterile conditions, and then subcutaneously inoculated into the right armpit of each mouse with a cannula. These mice were divided into 9 groups, 8 mice for each treatment group, while more than 12 mice were included in the control group.
14 days after inoculation, the average volume of the tumor mass was about 100 mm^3. The animals were regrouped based on the size of the tumor, and the mice with tumors that were too large and too small were eliminated. For each group, the average volume of tumors was basically the same, and then the mice were treated with test compounds. The mice in the treatment groups were administered once a day by gavage for 14 successive days, at a dosage of 0.5 mL/20 g body weight; the mice in the control group were given the same volume of physiological saline. From the 14th day of inoculation, the long diameter a (mm) of the tumor, together with the perpendicular short diameter b (mm), was measured using a digital electronic caliper, twice a week. The calculation formula of tumor volume is: TV=ab^2/2, and the formula for calculating the relative tumor volume is RTV=Vt/Vo, wherein Vo denotes the tumor volume measured when the mice were divided into groups (i.e. d1), and Vt is the tumor volume from each measurement.
as §4

Row | SMILES | inhibition in vivo at 100 mg/kg ([1]; Mus musculus, QGY-7703, read-out: Tumor inhibitory rate %) | RTV (d 18) [1] | The ratio of distribution area in tumor tissues (%) [2] | The ratio of CD8^+ in total immune cells of tumor tissues (%) [3] | RTV (d 18) [4] | Tumor inhibitory rate % [4] | Differentially expressed proteins [5] | Down-regulation [5] | Up-regulation [5] | RTV (d 18) [6] | Tumor inhibitory rate % [6] | RTV (d 22) [7] | inhibition in vivo at 400 mg/kg ([7]; Mus musculus, po, read-out: Tumor inhibitory rate %)
1 | COc1ccc(/C=C(/C(=O)O)c2cc(OC)c(OC)c(OC)c2)c(OC)c1O [Compound 12, (E)-3-(3-hydroxy-2,4-dimethoxyphenyl)-2-(3,4,5-trimethoxyphenyl)acrylic acid] | 62.2% | 4.86 ± 0.59 | 5.883 ± 0.6723% | 0.0753 ± 0.0103% | 5.62 ± 0.59 | 58.48^## % | 322 | 314 | 8 |  |  |  | 
2 | CCOc1ccc(/C=C(/C(=O)O)c2cc(OC)c(OC)c(OC)c2)cc1O [Compound 13, (E)-3-(4-ethoxy-3-hydroxyphenyl)-2-(3,4,5-trimethoxyphenyl)acrylic acid] |  |  | 6.547 ± 0.5843% | 0.0723 ± 0.0126% |  |  | 319 | 312 | 7 | 4.78 ± 0.83 | 53.64^## % | 3.83 ± 0.64 | 67.4%
